Measurements taken from US9546157B2, “Asymmetric piperidinyl-substituted ureas as medicines” (Helsinn Healthcare SA, priority 2014, dated 2017).

Experiments:
[1] = target: T1, GHSR1a (Homo sapiens, UniProt Q92847); test: Calcium FLIPR assay, GHSR-1a agonism; assay type: cell-based; set-up: Emax: unit not given here; settings: HEK293/GHSR1a cells
T1 construct: expressed in transfected cells; host or cells: HEK293
Summary of the method: (§1)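 Antagonist potency reflects lowering of the 10 nM ghrelin calcium signal in HEK293/GHSR1a cells, with compound and ghrelin given at t=20 sec. Agonism was scored from the 2-minute fluorescence response to compound alone.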

[2] = Metabolic Stability (M = Mouse); assay type: in vitro ADME
[3] = test system: C57BL/6J mice; test: Food intake test in mouse (GHSR1a antagonists); assay type: in vivo; settings: for inhibition in vivo at 10 mg/kg / inhibition in vivo at 30 mg/kg: Mus musculus
Protocol: Male C57BL/6J mice, 18-22 g body weight, were fasted overnight (16 h before compound administration) and placed in a regular light dark cycle (6:00-18:00 light/18:00-6:00 dark). After 1 wk acclimation, animals were sorted into two groups (n=6 each, 2 per cage) based on body weight. Animals in group one were be treated with vehicle and animals in group 2 were treated with the test agent (n=6 for each group). The cumulative food intake was evaluated at 1, 2, 4, 8 and 24 hrs after drug or vehicle treatment. Food intake was measured by subtracting uneaten food from the initial premeasured food.

[4] = target: T1, GHSR1a; test: Calcium FLIPR assay, GHSR-1a antagonism (reduction of ghrelin response); assay type: cell-based; settings: HEK293/GHSR1a cells, ghrelin 10 nM
Summary of the method: as §1

[5] = Metabolic Stability (H = Human); assay type: in vitro ADME

T1 sequence (Q92847 whole entry): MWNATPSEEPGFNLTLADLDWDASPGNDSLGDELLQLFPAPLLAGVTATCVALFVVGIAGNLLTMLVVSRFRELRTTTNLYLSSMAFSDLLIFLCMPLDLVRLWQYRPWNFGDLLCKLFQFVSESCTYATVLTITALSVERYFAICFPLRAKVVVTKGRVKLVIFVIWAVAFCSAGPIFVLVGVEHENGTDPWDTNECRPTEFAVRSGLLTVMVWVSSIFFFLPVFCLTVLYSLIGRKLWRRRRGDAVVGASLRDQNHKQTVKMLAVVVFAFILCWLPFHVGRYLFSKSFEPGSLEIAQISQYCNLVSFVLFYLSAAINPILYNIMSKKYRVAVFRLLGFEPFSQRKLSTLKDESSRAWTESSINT

SMILES | EC50 [1] [nM] | Metabolic Stability M [2] | inhibition in vivo at 10 mg/kg ([3]; 1 h, Fed mice, 10 mg/kg) [%] | inhibition in vivo at 10 mg/kg ([3]; ip, 2 h, i.p. 10 mg/kg) [%] | IC50 [4] [nM] | Metabolic Stability H [5] | inhibition in vivo at 10 mg/kg ([3]; ip, 1 h, i.p. 10 mg/kg) [%] | Mouse Food Intake, result in words ([3]; PO 30 mg/kg) | Mouse Food Intake, result in words ([3]; PO, dose not given) | Mouse Food Intake, result in words ([3]; PO + ANA (ANAM), mice, dose not given) | Emax [1] | Mouse Food Intake, result in words ([3]; PO, fasted mice, dose not given) | FI increase ([3]; PO, fed mice) [%] | Mouse Food Intake, result in words ([3]; fed mice, route not clear) | inhibition in vivo at 30 mg/kg ([3]; po, 2 h, PO 30 mg/kg) [%] | inhibition in vivo at 30 mg/kg ([3]; sc, 1 h, SC 30 mg/kg) [%]
CC(NC(=O)N(C)C1CCN(C)CC1)c1ccc(-c2cnccn2)c(Cl)c1Cl (stereo not drawn) [Compound H0700, 3-(1-(2,3-dichloro-4-(pyrazin-2-yl)phenyl)ethyl)-1-methyl-1-(1-methylpiperidin-4-yl)urea] | > 30000 | High H High M | 71 | 41 | 7 | High H High M | – | – | – | – | – | – | – | – | – | –
CC(NC(=O)N(C)C1CCN(C)CC1)c1ccc(-c2cncc(N)c2)c(Cl)c1Cl (stereo not drawn) [Compound H0704, 3-(1-(4-(5-aminopyridin-3-yl)-2,3-dichlorophenyl)ethyl)-1-methyl-1-(1-methylpiperidin-4-yl)urea] | > 30000 | Medium | – | 32 | 19 | High | – | – | – | – | – | – | – | – | – | –
CN1CCC(N(C)C(=O)NC(CC2CC2)c2ccc(-c3cnccn3)c(Cl)c2Cl)CC1 (stereo not drawn) [Compound H0722, 3-(2-cyclopropyl-1-(2,3-dichloro-4-(pyrazin-2-yl)phenyl)ethyl)-1-methyl-1-(1-methylpiperidin-4-yl)urea] | > 30000 | High H High M | – | – | 13 | High H High M | 90 | NSE | – | – | – | – | – | – | – | –
CC(NC(=O)N(C)C1CCN(C)CC1)c1ccc(C#Cc2cccs2)c(Cl)c1Cl (stereo not drawn) [Compound H0737, 3-(1-(2,3-dichloro-4-(thiophen-2-ylethynyl)phenyl)ethyl)-1-methyl-1-(1-methylpiperidin-4-yl)urea] | > 30000 | High H High M | – | – | 13 | High H High M | 75 | – | NSE | – | – | – | – | – | – | –
CC(NC(=O)N(C)C1CCN(C)CC1)c1ccc(C#Cc2nccs2)c(Cl)c1Cl (stereo not drawn) [Compound H0754, 3-(1-(2,3-dichloro-4-(thiazol-2-ylethynyl)phenyl)ethyl)-1-methyl-1-(1-methylpiperidin-4-yl)urea] | > 30000 | High H High M | – | – | 11 | High H High M | 74 | – | no effect | no effect | – | – | – | – | – | –
CC(NC(=O)N(C)C1CCN(C)CC1)c1ccc(C#Cc2ccsc2)c(Cl)c1Cl (stereo not drawn) [Compound H0759, 3-(1-(2,3-dichloro-4-(thiophen-3-ylethynyl)phenyl)ethyl)-1-methyl-1-(1-methylpiperidin-4-yl)urea] | > 30000 | High H High M | – | – | 7 | High H High M | 85 | – | no effect | – | – | – | – | – | – | –
CN1CCC(N(O)C(=O)NC(CC2CC2)c2ccc(-c3cnccn3)c(Cl)c2Cl)CC1 (stereo not drawn) [Compound H0761, 3-(2-cyclopropyl-1-(2,3-dichloro-4-(pyrazin-2-yl)phenyl)ethyl)-1-hydroxy-1-(1-methylpiperidin-4-yl)urea] | 3 | High H High M | – | – | 0.2 | High H High M | 63 | – | NSE | – | 2907 | No activity | 215 | No activity | – | –
CC(NC(=O)N(C)C1CCN(C)CC1)c1ccc(C#CC2CC2)c(Cl)c1Cl (stereo not drawn) [Compound H0764, 3-(1-(2,3-dichloro-4-(cyclopropylethynyl)phenyl)ethyl)-1-methyl-1-(1-methylpiperidin-4-yl)urea] | 14 | High H High M | – | – | 10 | High H High M | 91 | – | – | – | 1352 | – | – | – | 70 | 53
